Key:
[1] = system: HCV replicon RNA (GenBank Accession No. AJ242654); experiment: HCV Replicon Assay (replicon RNA reduction and/or Fluc reporter signal); type: cell-based, Hepatitis C virus; details: Hepatitis C virus, 72 h, replicon-containing cells cultured with test compound for up to 3 days
How it was run: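 Bicistronic replicon-containing cells cultured with compound for up to 3 days, with interferon as positive control. Inhibition quantified by replicon RNA reduction and/or Fluc reporter signal; IC50 values generally derived from replicon RNA reduction.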

Compound | IC50 [1] | melting point
C[C@@H](NS(=O)(=O)c1ccc(-c2c(C#N)c3cc(Cl)ncc3n2C2CCC2)nc1)C(F)(F)F [Cpd 104, 6-(5-chloro-3-cyano-1-cyclobutyl-1H-pyrrolo[2,3-c]pyridin-2-yl)-N-[(2R)-1,1,1-trifluoropropan-2-yl]pyridine-3-sulfonamide] | < 500 nM | 181 to 185 °C
C[C@@H](NS(=O)(=O)c1ccc(-c2c(C#N)c3cc(Cl)ncc3n2C2CCC2)cc1)C(F)(F)F [Cpd 105, 4-(5-chloro-3-cyano-1-cyclobutyl-1H-pyrrolo[2,3-c]pyridin-2-yl)-N-[(2R)-1,1,1-trifluoropropan-2-yl]benzenesulfonamide] | < 500 nM | 248 to 250 °C
N#Cc1c(-c2ccc(S(=O)(=O)NC3CC3)cn2)n(C2CCC2)c2cnc(Cl)cc12 [Cpd 106, 6-(5-chloro-3-cyano-1-cyclobutyl-1H-pyrrolo[2,3-c]pyridin-2-yl)-N-cyclopropylpyridine-3-sulfonamide] | < 500 nM | 170 to 172 °C
C[C@@H](NS(=O)(=O)c1ccc(-c2c(C#N)c3cc(C#N)cnc3n2C2CCC2)nc1)C(F)(F)F [Cpd 107, 6-(3,5-dicyano-1-cyclobutyl-1H-pyrrolo[2,3-b]pyridin-2-yl)-N-[(2R)-1,1,1-trifluoropropan-2-yl]pyridine-3-sulfonamide] | < 500 nM | 202 to 203 °C
C[C@H](NS(=O)(=O)c1ccc(-c2c(C#N)c3cc(C#N)cnc3n2C2CCC2)nc1)C(F)(F)F [Cpd 108, 6-(3,5-dicyano-1-cyclobutyl-1H-pyrrolo[2,3-b]pyridin-2-yl)-N-[(2S)-1,1,1-trifluoropropan-2-yl]pyridine-3-sulfonamide] | < 500 nM | 203 to 204 °C
C[C@H](NS(=O)(=O)c1cnc(-c2c(C#N)c3cc(C#N)cnc3n2C2CCC2)nc1)C(F)(F)F [Cpd 109, 2-(3,5-dicyano-1-cyclobutyl-1H-pyrrolo[2,3-b]pyridin-2-yl)-N-[(2S)-1,1,1-trifluoropropan-2-yl]pyrimidine-5-sulfonamide] | < 500 nM | 216 to 219 °C
C[C@H](NS(=O)(=O)c1ccc(-c2c(C#N)c3cc(C#N)cnc3n2C2CCC2)cc1)C(F)(F)F [Cpd 110, 4-(3,5-dicyano-1-cyclobutyl-1H-pyrrolo[2,3-b]pyridin-2-yl)-N-[(2S)-1,1,1-trifluoropropan-2-yl]benzenesulfonamide] | < 500 nM | 241 to 243 °C
N#Cc1cnc2c(c1)c(C#N)c(-c1ccc(S(=O)(=O)NC3(C(F)(F)F)CC3)cn1)n2C1CCC1 [Cpd 111, 6-(3,5-dicyano-1-cyclobutyl-1H-pyrrolo[2,3-b]pyridin-2-yl)-N-[1-(trifluoromethyl)cyclopropyl]pyridine-3-sulfonamide] | < 500 nM | 207 to 208 °C
N#Cc1cnc2c(c1)c(C#N)c(-c1ccc(S(=O)(=O)NC3(C(F)(F)F)CC3)cc1)n2C1CCC1 [Cpd 112, 4-(3,5-dicyano-1-cyclobutyl-1H-pyrrolo[2,3-b]pyridin-2-yl)-N-[1-(trifluoromethyl)cyclopropyl]benzenesulfonamide] | < 500 nM | 231 to 233 °C
CC1(NS(=O)(=O)c2ccc(-c3c(C#N)c4cc(C#N)cnc4n3C3CCC3)nc2)CC1 [Cpd 113, 6-(3,5-dicyano-1-cyclobutyl-1H-pyrrolo[2,3-b]pyridin-2-yl)-N-(1-methylcyclopropyl)pyridine-3-sulfonamide] | < 500 nM | 198 to 200 °C
CC1(NS(=O)(=O)c2cnc(-c3c(C#N)c4cc(C#N)cnc4n3C3CCC3)nc2)CC1 [Cpd 114, 2-(3,5-dicyano-1-cyclobutyl-1H-pyrrolo[2,3-b]pyridin-2-yl)-N-(1-methylcyclopropyl)pyrimidine-5-sulfonamide] | < 500 nM | 229 to 231 °C
C[C@H](NS(=O)(=O)c1ccc(-c2c(C#N)c3cc(C4CC4)cnc3n2C2CCC2)cc1)C(F)(F)F [Cpd 115, 4-(3-cyano-1-cyclobutyl-5-cyclopropyl-1H-pyrrolo[2,3-b]pyridin-2-yl)-N-[(2S)-1,1,1-trifluoropropan-2-yl]benzenesulfonamide] | 500 to 2000 nM | 196 to 203 °C
C[C@@H](NS(=O)(=O)c1ccc(-c2c(C#N)c3cc(C4CC4)cnc3n2C2CCC2)cc1)C(F)(F)F [Cpd 116, 4-(3-cyano-1-cyclobutyl-5-cyclopropyl-1H-pyrrolo[2,3-b]pyridin-2-yl)-N-[(2R)-1,1,1-trifluoropropan-2-yl]benzenesulfonamide] | < 500 nM | 190 to 195 °C
C[C@H](NS(=O)(=O)c1ccc(-c2c(C#N)c3cc(C4CC4)cnc3n2C2CCC2)nc1)C(F)(F)F [Cpd 117, 6-(3-cyano-1-cyclobutyl-5-cyclopropyl-1H-pyrrolo[2,3-b]pyridin-2-yl)-N-[(2S)-1,1,1-trifluoropropan-2-yl]pyridine-3-sulfonamide] | < 500 nM | 136 to 144 °C
C[C@@H](NS(=O)(=O)c1ccc(-c2c(C#N)c3cc(C4CC4)cnc3n2C2CCC2)nc1)C(F)(F)F [Cpd 118, 6-(3-cyano-1-cyclobutyl-5-cyclopropyl-1H-pyrrolo[2,3-b]pyridin-2-yl)-N-[(2R)-1,1,1-trifluoropropan-2-yl]pyridine-3-sulfonamide] | < 500 nM | 138 to 147 °C
C[C@H](NS(=O)(=O)c1cnc(-c2c(C#N)c3cc(C4CC4)cnc3n2C2CCC2)nc1)C(F)(F)F [Cpd 119, 2-(3-cyano-1-cyclobutyl-5-cyclopropyl-1H-pyrrolo[2,3-b]pyridin-2-yl)-N-[(2S)-1,1,1-trifluoropropan-2-yl]pyrimidine-5-sulfonamide] | < 500 nM | 176 to 183 °C
CC(C)(NS(=O)(=O)c1ccc(-c2c(C#N)c3cc(C4CC4)cnc3n2C2CCC2)cc1)C(F)(F)F [Cpd 121, 4-(3-cyano-1-cyclobutyl-5-cyclopropyl-1H-pyrrolo[2,3-b]pyridin-2-yl)-N-(1,1,1-trifluoro-2-methylpropan-2-yl)benzenesulfonamide] | < 500 nM | 207 to 212 °C
C[C@H](NS(=O)(=O)c1ccc(-c2c(C#N)c3cc(OC(F)F)cnc3n2C2CCC2)nc1)C(F)(F)F [Cpd 122, 6-[3-cyano-1-cyclobutyl-5-(difluoromethoxy)-1H-pyrrolo[2,3-b]pyridin-2-yl]-N-[(2S)-1,1,1-trifluoropropan-2-yl]pyridine-3-sulfonamide] | < 500 nM | 155 to 156 °C
N#Cc1c(-c2ccc(S(=O)(=O)NC3(C(F)(F)F)CC3)cn2)n(C2CCC2)c2ncc(C3CC3)cc12 [Cpd 124, 6-(3-cyano-1-cyclobutyl-5-cyclopropyl-1H-pyrrolo[2,3-b]pyridin-2-yl)-N-[1-(trifluoromethyl)cyclopropyl]pyridine-3-sulfonamide] | < 500 nM | 163 to 171 °C
CC(C)(C)NS(=O)(=O)c1ccc(-c2c(C#N)c3cc(C4CC4)cnc3n2C2CCC2)cc1 [Cpd 125, N-tert-butyl-4-(3-cyano-1-cyclobutyl-5-cyclopropyl-1H-pyrrolo[2,3-b]pyridin-2-yl)benzenesulfonamide] | < 500 nM | 210 to 215 °C
